Measured values as given in patent US9765065B2, “Therapeutic substituted cyclopentanes” (ALLERGAN, INC., priority 2007, dated 2017).
pEC50, pKi: −log10 of the molar value.

Experiments:
EP4 [1] = biological target: T1, EP4 (Homo sapiens, UniProt P35408); assay: EP4 flipr; type: cell-based
Text: (§1) U.S. patent application Ser. No. 11/553,143, filed on Oct. 26, 2006, incorporated by reference herein in its entirety, describes the methods used to obtain the in vitro data in the table below.

EP2 [2] = biological target: T2, EP2 (Homo sapiens, UniProt P43116); assay: EP2 flipr; type: cell-based
Text: as §1

EP2 [3] = biological target: T2, EP2; assay: EP2 cAMP; type: cell-based
Text: as §1

hEP3A = biological target: T3, hEP3A (Homo sapiens, UniProt P43115); assay: Other receptors hEP3A; type: cell-based
T3 sequence (P43115 1-390): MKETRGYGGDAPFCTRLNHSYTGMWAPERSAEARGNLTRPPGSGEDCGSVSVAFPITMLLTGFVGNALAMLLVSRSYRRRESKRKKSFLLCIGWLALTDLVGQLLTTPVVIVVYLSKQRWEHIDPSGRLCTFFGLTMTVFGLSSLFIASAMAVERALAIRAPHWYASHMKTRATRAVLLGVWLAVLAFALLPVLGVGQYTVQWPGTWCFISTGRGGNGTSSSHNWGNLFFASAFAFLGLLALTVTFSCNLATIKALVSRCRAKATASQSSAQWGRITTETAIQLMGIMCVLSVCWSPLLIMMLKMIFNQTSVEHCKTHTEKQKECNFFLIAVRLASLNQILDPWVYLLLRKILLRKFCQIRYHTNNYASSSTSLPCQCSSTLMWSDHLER
Text: as §1

EP2 [4] = biological target: T2, EP2; assay: EP2 binding Ki
Text: as §1

hTP = biological target: T4, hTP (Homo sapiens, UniProt P21731); assay: Other receptors hTP; type: cell-based
T4 sequence (P21731 1-343): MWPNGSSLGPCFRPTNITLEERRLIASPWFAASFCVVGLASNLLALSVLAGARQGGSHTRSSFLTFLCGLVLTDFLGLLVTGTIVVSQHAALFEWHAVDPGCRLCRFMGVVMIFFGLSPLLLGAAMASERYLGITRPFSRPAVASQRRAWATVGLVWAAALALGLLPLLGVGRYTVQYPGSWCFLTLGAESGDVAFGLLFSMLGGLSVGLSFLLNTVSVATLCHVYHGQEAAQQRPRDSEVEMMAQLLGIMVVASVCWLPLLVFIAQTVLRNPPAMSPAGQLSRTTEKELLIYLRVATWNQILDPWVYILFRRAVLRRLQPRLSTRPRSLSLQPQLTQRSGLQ
Text: as §1

EP4 [5] = biological target: T1, EP4; assay: EP4 binding Ki
Text: as §1

hDP = biological target: T5, hDP (Homo sapiens, UniProt Q13258); assay: Other receptors hDP; type: cell-based
T5 sequence (Q13258 1-359): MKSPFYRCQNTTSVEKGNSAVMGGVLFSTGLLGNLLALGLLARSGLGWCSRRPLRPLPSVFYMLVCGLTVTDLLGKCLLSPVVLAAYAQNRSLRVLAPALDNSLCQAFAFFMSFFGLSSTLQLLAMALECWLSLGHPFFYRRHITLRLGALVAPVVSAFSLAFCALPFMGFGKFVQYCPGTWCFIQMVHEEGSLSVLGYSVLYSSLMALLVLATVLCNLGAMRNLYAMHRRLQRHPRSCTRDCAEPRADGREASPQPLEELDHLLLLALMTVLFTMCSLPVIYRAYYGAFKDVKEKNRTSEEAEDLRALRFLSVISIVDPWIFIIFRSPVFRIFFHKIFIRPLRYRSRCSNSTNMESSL
Text: as §1

T2 sequence (P43116 whole entry): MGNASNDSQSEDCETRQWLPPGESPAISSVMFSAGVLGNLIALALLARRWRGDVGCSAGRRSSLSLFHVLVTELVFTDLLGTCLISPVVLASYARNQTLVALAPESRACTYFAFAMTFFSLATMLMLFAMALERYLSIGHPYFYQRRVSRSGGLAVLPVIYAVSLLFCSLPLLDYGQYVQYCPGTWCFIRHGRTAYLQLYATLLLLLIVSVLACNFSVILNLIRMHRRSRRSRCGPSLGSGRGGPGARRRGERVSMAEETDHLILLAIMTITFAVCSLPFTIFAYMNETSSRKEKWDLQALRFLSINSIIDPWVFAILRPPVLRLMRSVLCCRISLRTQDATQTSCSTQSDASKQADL
T1 sequence (P35408 whole entry): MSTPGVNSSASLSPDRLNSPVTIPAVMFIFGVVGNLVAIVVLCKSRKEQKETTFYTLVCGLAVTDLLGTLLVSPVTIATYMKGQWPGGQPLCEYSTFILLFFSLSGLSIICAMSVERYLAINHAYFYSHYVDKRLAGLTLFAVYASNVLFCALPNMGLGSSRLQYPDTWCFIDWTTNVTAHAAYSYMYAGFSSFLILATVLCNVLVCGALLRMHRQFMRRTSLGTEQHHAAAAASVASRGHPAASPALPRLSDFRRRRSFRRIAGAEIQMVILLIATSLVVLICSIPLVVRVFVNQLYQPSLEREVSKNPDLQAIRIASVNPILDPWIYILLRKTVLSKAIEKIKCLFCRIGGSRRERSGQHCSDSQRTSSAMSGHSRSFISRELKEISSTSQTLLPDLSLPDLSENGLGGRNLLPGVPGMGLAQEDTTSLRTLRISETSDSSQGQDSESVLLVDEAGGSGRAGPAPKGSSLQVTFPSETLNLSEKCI

pEC50 (EP4 [1]) | pEC50 (EP2 [2]) | pEC50 (EP2 [3]) | EC50 (hEP3A) [nM] | pKi (EP2 [4]) | EC50 (hTP) [nM] | pKi (EP4 [5]) | EC50 (hDP) [nM] | SMILES
< 5.00 | 7.07 | 9.89 |  | 8.70 |  | 6.87 | > 10000 | O=C(O)c1ccc(CCC[C@@H]2[C@@H](/C=C/c3cc(Cl)cc(CO)c3)[C@H](O)C[C@H]2Cl)s1 [Example 2, 5-(3-((1R,2R,3R,5R)-5-chloro-2-(3-chloro-5-(hydroxymethyl)styryl)-3-hydroxycyclopentyl)propyl)-thiophene-2-carboxylic acid]
< 5.00 | 7.66 | 9.52 |  | 8.15 | 65300 | 6.06 |  | O=C(O)c1ccc(CCC[C@@H]2[C@@H](/C=C/c3cc(F)cc(F)c3)[C@H](O)C[C@H]2Cl)s1 [Example 6, 5-(3-((1R,2R,3R,5R)-5-chloro-2-((E)-3,5-difluorostyryl)-3-hydroxycyclopentyl)propyl)thiophene-2-carboxylic acid]
 | 5.15 | 6.68 |  | 6.37 | 95 | 5.49 | 6370 | O=C(O)c1ccc(CCC[C@@H]2[C@@H](/C=C\c3cc(F)cc(F)c3)[C@H](O)C[C@H]2Cl)s1 [Example 7, 5-(3-((1R,2R,3R,5R)-5-chloro-2-((Z)-3,5-difluorostyryl)-3-hydroxycyclopentyl)propyl)thiophene-2-carboxylic acid]

More lines, now with the values behind:

SMILES | pEC50 (EP4 [1]) | pEC50 (EP2 [2]) | pEC50 (EP2 [3]) | EC50 (hEP3A) [nM] | pKi (EP2 [4]) | EC50 (hTP) [nM] | pKi (EP4 [5]) | EC50 (hDP) [nM]
O=C(O)c1ccc(C=CC[C@@H]2[C@@H](C=Cc3cc(Cl)cc(Cl)c3)[C@H](O)C[C@H]2Cl)s1 [Example 1, 5-(3-((1R,2R,3R,5R)-5-chloro-2-(3,5-dichlorostyryl)-3-hydroxycyclopentyl)prop-1-enyl)thiophene-2-carboxylic acid] | < 5.00 | 7.43 | 9.70 | > 10000 | 8.66 | > 10000 | 6.36 | 
O=C(O)c1ccc(CCC[C@@H]2[C@@H](/C=C\c3cc(Cl)nc(Cl)c3)[C@H](O)C[C@H]2Cl)s1 [Example 5, 5-(3-((1R,2R,3R,5R)-5-chloro-2-((Z)-2-(2,6-dichloropyridin-4-yl)vinyl)-3-hydroxycyclopentyl)propyl)-thiophene-2-carboxylic acid] | 5.72 | 6.34 | 8.52 |  | 7.42 |  | 5.70 | 2100
Cc1cccc(/C=C/[C@@H]2[C@@H](CCCc3ccc(C(=O)O)s3)[C@H](Cl)C[C@H]2O)c1 [Example 12, 5-(3-((1R,2R,3R,5R)-5-chloro-3-hydroxy-2-(3-methylstyryl)cyclopentyl)propyl)thiophene-2-carboxylic acid] | 4.77 | 7.77 | 10.00 | 9880 | 8.70 | 3760 | 6.84 | 12300
O=C(O)c1ccc(CCC[C@@H]2[C@@H](C#Cc3cccs3)[C@H](O)C[C@H]2Cl)s1 [Example 28, 5-(3-((1R,2S,3R,5R)-5-chloro-3-hydroxy-2-(thiophen-2-ylethynyl)cyclopentyl)propyl)thiophene-2-carboxylic acid] | 5.23 |  | 9.10 | 6520 | 8.00 |  | 6.08 | 18300
O=C(O)c1csc(SCC[C@@H]2[C@@H](C#Cc3cc(Cl)cc(Cl)c3)[C@H](O)C[C@H]2Cl)n1 [Example 34, 2-(2-((1R,2S,3R,5R)-5-chloro-2-((3,5-dichlorophenyl)ethynyl)-3-hydroxycyclopentyl)ethylthio)thiazole-4-carboxylic acid] | 8.48 |  | 9.80 | 2880 | 8.82 |  | 7.22 | 14800
O=C(O)c1csc(SCC[C@@H]2[C@@H](C#Cc3ccccc3)[C@H](O)C[C@H]2Cl)n1 [Example 35, 2-(2-((1R,2S,3R,5R)-5-chloro-3-hydroxy-2-(phenylethynyl)cyclopentyl)ethylthio)thiazole-4-carboxylic acid] | 8.00 |  | 10.10 | 1500 | 8.30 |  | 6.33 | 1030
